# In patent US9422308B2, “Derivatives of docosahexaenoylethanolamide and uses thereof” (The United States of America, as represented by the …, priority 2012, dated 2016):
# Columns and labels:
# [1] = test system: fatty acid amide hydrolase (FAAH); assay: incubation with WT or FAAH KO brain homogenates (susceptibility to FAAH hydrolysis); assay type: in vitro ADME, mouse; settings: for susceptibility to hydrolysis by FAAH: WT or FAAH KO brain homogenates
# Experimental: Wildtype (WT) or FAAH knock out (KO) brain homogenates were incubated with either A8 or synaptamide.
# Incubation of synaptamide and A8 with brain homogenates: Make 5× pH 9 assay buffer (625 mM Tris, 5 mM EDTA). Collect fresh brains of C57 mice into cold 1× pH 9 assay buffer. Homogenize entire brain (including cerebellum) in 2 mL of cold buffer using a conical Potter-Evehjem type tissue homogenizer driven by a motor. Perform incubations in washed and silanized 10 mL glass test tubes at 37° C. for 1 hour. Add 10 pmoles each of A8 and d4-synaptamide (5 uL of a 2 pmol/uL mixture of A8 and d4-synaptamide in DMSO). See Kim et al., Prostaglandins & Other Lipid Mediators, 96(1-4):114-120 (2011) for the structure of d4-synaptamide (d4-DEA). Add 500 μL of brain homogenate per incubation tube. Vortex gently. Incubate at 37° C. in a water bath, shaking at 42 rpm for 1 hour. Stop reaction by adding 1 mL chloroform, 1 mL methanol, 1 mL methanol/BHT (50 mg/L BHT) and 300 μL water. Vortex to mix, store under an inert gas at −80° C. until. Ready to extract via the method of Bligh and Dyer, Canadian J. Biochem. 37: 911-917, 1959.
# Extraction procedure: Incubations are already in the 1st Bligh-Dyer ration (0.8:1:2 aqueous:CHCl3:MeOH). Work on wet ice. Add 10 pmoles of d4-anandamide which will be used as an internal standard to give relative quantification of the unhydrolyzed d4-synaptamide and A8. Add 1 mL water and 1 mL CHCl3 to each tube, purge with nitrogen, vortex vigorously 1 minute. Centrifuge 5 minutes at 4° C.; 3,000 rpm (Sorvall RTH 750 rotor) to separate phases. Extract the organic phase (bottom layer) to a clean silanized 10 mL test tube using glass Pasteur pipette. Avoid getting any aqueous phase in extract. Add 2 mL CHCl3 to the aqueous phase, purge with nitrogen and vortex 1 minute. […] Cap vials under argon and store at −80° C. until ready to analyze via HPLC-MS.
# Ten pmoles each of A8 and d4-synaptamide were incubated with WT or FAAH KO brain homogenates or buffer (B, […]). Relative quantitation was performed via SRM mass spectrometry.
# FAAH KO mice = assay: beam walk test after traumatic brain injury by controlled cortical impact; assay type: in vivo; settings: one-time i.p. 25 mg/kg at 15 min after TBI (CCI), from the day 4 after TBI, FIG. 8
# Experimental: For the beam walk test, mice were trained to traverse a narrow beam before injury caused by controlled cortical impact (CCI), and the number of hind foot slips after injury was observed over the course of recovery.
# A8 has increased resistance to FAAH in comparison to synaptamide but still does show some susceptibility to hydrolysis by FAAH. The effects of A8 in FAAH KO mice were tested by one-time i.p. administration of A8 (25 mg/kg) at 15 min after traumatic brain injury (TBI) inflicted by controlled cortical impact (CCI).
compound,measurement,setting,value
"CC/C=C\C/C=C\C/C=C\C/C=C\C/C=C\C/C=C\CCC(=O)NCC(C)(C)O [Compound 1, (4Z,7Z,10Z,13Z,16Z,19Z)—N-(2-hydroxy-2-methylpropyl)docosa-4,7,10,13,16,19-hexaenamide]",susceptibility to hydrolysis by FAAH,"[1]; Example 3, FIG. 5",less susceptible to hydrolysis by FAAH than synaptamide
same,susceptibility to hydrolysis by FAAH,"[1]; Example 4, 10 pmoles, pH 9, 37° C., 1 hour, FIG. 6, vs d4-synaptamide",less susceptible to hydrolysis by FAAH than the deuterated synaptamide
same,percent recovery of compound after incubation with brain homogenate,"[1]; WT and FAAH KO brain homogenate, FIG. 5, compared with synaptamide",higher than synaptamide
same,"TBI-induced behavioral deficit (beam walk test, hind foot slips)",FAAH KO mice,significant improvement
